Experimental data as given in patent US20240335427A1, “SMALL MOLECULE INHIBITION OF DEUBIQUITINATING ENZYME JOSEPHIN DOMAIN CONTAINING 1 (JOSD1) AS A TARGETED THERAPY FOR LEUKEMIAS WITH MUTANT JANUS KINASE 2 (JAK2)” (DANA-FARBER CANCER INSTITUTE, INC., priority 2021, published 2024).

Tests used:
UCHL1 = UCHL1 (Homo sapiens (Human), UniProt P09936); test: UCHL1 biochemical inhibition (ubiquitin hydrolase activity, purified enzyme)
JOSD1 [1] = target: T1, JOSD1 (Homo sapiens (Human), UniProt Q15040); test: In vitro JOSD1 activity assay (biochemical IC50, purified enzyme); conditions: for IC50: read-out: JOSD1 IC50
Experimental: (§3) In vitro JOSD1 activity assay & Ubiquitin-7-amido-4-methylcoumarin (AMC) assay. In vitro JOSD1 activity assay was carried out with Ubiquitin-AMC assay. […] Recombinant JOSD1 was tested for activity in a Ubiquitin-AMC assay in the presence or absence of inhibitors. […] The reaction was incubated for 6 hours at room temperature prior to the addition of 2 μM Ubiquitin-AMC (Boston Biochem) substrate. The initial rate of the reaction was measured by collecting fluorescence data at one-minute intervals over a 30-minute period using a Clariostar® fluorescence plate reader at excitation and emission wavelengths of 345 and 445 nm, respectively. The calculated initial rate values were plotted against inhibitor concentrations to determine IC50 values.
(§4) In vitro JOSD1 activity assay. Recombinant full-length JOSD1 was tested for activity in a Ubiquitin-AMC assay in the presence or absence or inhibitors. For this assay, 10 nM JOSD1 was pre-incubated with different concentrations of inhibitors or DMSO as a control in 50 mM Tris 8.0, 0.5 mM EDTA, 10 mM ovalbumin, 5 mM DTT. The reaction was incubated for 6 h at room temperature prior to the addition of 2 mM Ubiquitin-AMC (Boston Biochem) substrate. The initial rate of the reaction was measured by collecting fluorescence data at one-minute intervals over a 30-minute period using a CLARIOstar® fluorescence plate reader at excitation and emission wavelengths of 345 and 445 nm, respectively. The calculated initial rate values were plotted against inhibitor concentrations to determine IC50 values.
(§5) JOSD1 biochemical inhibition was investigated for the analogs shown using the fluorescent substrate ubiquitin-rhodamine against purified enzyme in a continuous kinetic assay.

[2] = tested on: JAK2-V617F-positive primary AML patient samples; test: AML liquid culture proliferation, primary patient samples; format: cell-based, human; conditions: 1 μM
Description: AML liquid culture proliferation and colony assay studies. Frozen vials of bone marrow from AML patients identified as harboring JAK2-V617F were previously Ficoll®-purified to obtain mononuclear cells and thawed prior to use in studies.

JOSD1 [3] = target: T1, JOSD1; test: biochemical
Experimental: as §3, §4, §5

USP30 = USP30 (Homo sapiens (Human), UniProt Q70CQ3); test: USP30 biochemical IC50
[4] = tested on: native DUBs (UCHL1, USP30 and JOSD1); test: Competitive activity-based protein profiling with quantitative mass spectrometry in HEK-293T lysates; format: binding; conditions: block of labeling by DUB activity-based probes
Experimental: Activity Based Protein Profiling (ABPP) assay. DUB targets were investigated using competitive ABPP with quantitative mass spectrometry. The ability to block labeling of 50 DUBs by ubiquitin-based DUB activity-based probes was quantitatively measured in HEK-293T lysates.
DUB ABPP of Compound Targets. Activity-based probes biotin-Ub-PA (UbiQ-076) and biotin-Ub-VME (UbiQ-054) were obtained from UbiQ Bio. DUB Activity based protein profiling was performed using conditions modified from those in Schauer, et al., 2020, Scientific Reports, 10:1-15, based on work by Lawson, et al., 2017 Oncotarget, 8:51296-316. HEK 293T cells were lysed (50 mM Tris pH 8.0, 150 mM NaCl, 5 mM MgC2, 0.5 mM EDTA, 0.5% NP-40, 10% glycerol, 1 mM tris(2-carboxyethyl)phosphine (TCEP), protease and phosphatase inhibitors) and the lysate was clarified by centrifugation, then diluted to 10 mg/mL. 200 μL aliquots were incubated at the indicated compound concentrations or DMSO for 5 hours at room temperature, final DMSO concentration 0.5%. Afterwards, the treated lysates were incubated with 1 μM each of Biotin-Ub-PA and Biotin-Ub-VME for 90 minutes at room temperature. […]
Specifically, quantitative mass spectrometry was utilized to measure the ability of compounds 1 and 2 to block labeling of […] native DUBs by ubiquitin-based DUB activity-based probes in HEK-293T lysates. […]

[5] = tested on: Ba/F3-EPOR-JAK2-V617F-expressing cells; test: Ba/F3 cell proliferation (CellTiter Glo); format: cell-based, murine
Experimental: Proliferation and Drug Combination Studies. Proliferation and drug combination studies were carried out as previously described (Yang, et al., 2020, British Journal of Cancer, 122:1175-84).
As toxicities can result from small molecule targeting of both oncogenic mutated JAK2 as well as its non-mutated counterpart, a chemical genetics screen was designed and performed of a DUB-focused small molecule inhibitor library with the goal of leveraging crosstalk between phosphorylation and ubiquitination to identify DUB inhibitors able to selectively degrade mutant JAK2 while sparing wt JAK2. Of relevance, activated FLT3 can be selectively degraded over the wt enzyme by inhibition of the DUB, USP10, (Wernig, et al., 2008, Blood, 111(7):3751-9) and similar to FLT3, JAK2 is ubiquitinated in an activation-dependent manner. In brief, the library of known and novel DUB inhibitors was evaluated for ability to suppress growth of Ba/F3-EPOR-JAK2-V617F-expressing cells selectively over Ba/F3-EPOR cells growing in the presence of interleukin-3.
(§1) A broader range of compounds 1 and 2, including concentrations lower than 1 μM, were also tested on growth of EPOR-JAK2-V617F-expressing Ba/F3 cells and parental Ba/F3 EpoR+ cells (24 hours treatment on 4000 cells per well) (FIG. 18-FIG. 18B). Cell growth inhibition (FIG. 17A-FIG. 17B, FIG. 18A-FIG. 18B) was tested on Ba/F3-EPOR-JAK2-V617F (-IL-3/WEHI) and parental Ba/F3-EPOR cells (+IL-3/WEHI) plated at 2000 cells per well, at 1, 3 and 10 μM for 24 hours using the Promega CellTiter Glo® assay.

JAK2-V617F [6] = test: JAK2 protein level by western blotting in Ba/F3-EPOR-JAK2-V617F cells; format: cell-based
Experimental: Immunoblotting and Immunoprecipitation. Protein lysate preparation, immunoblotting, and immunoprecipitation were carried out as previously described (Lamberto, et al., 2017 Cell Chem Biol., 224(12):1490-500 e11). Briefly, 0.7×10^6 cells were treated with compounds 1 and 2 at 0, 5, 10, […], cells were collected, and lysate was prepared in radioimmunoprecipitation assay (RIPA) buffer, JAK family and downstream signaling protein levels were detected by western blotting with the indicated antibodies. For immunoprecipitation, 1 mg protein for each sample was prepared and 1 μg antibody was used, immunoglobulin G (IgG) was added in same amount as nontargeting control.
as §1

wt JAK2 = wt JAK2 (Mus musculus (Mouse), UniProt Q62120); test: JAK2 protein level by western blotting in Ba/F3-EPOR-JAK2 wt cells; format: cell-based
Experimental: (§2) Immunoblotting and Immunoprecipitation. Protein lysate preparation, immunoblotting, and immunoprecipitation were carried out as previously described (Lamberto, et al., 2017 Cell Chem Biol., 224(12):1490-500 e11). Briefly, 0.7×10^6 cells were treated with compounds 1 and 2 at 0, 5, 10, and 20 μM for 16 or 24 hours, cells were collected, and lysate was prepared in radioimmunoprecipitation assay (RIPA) buffer, JAK family and downstream signaling protein levels were detected by western blotting with the indicated antibodies. For immunoprecipitation, 1 mg protein for each sample was prepared and 1 μg antibody was used, immunoglobulin G (IgG) was added in same amount as nontargeting control.

HEL cells = test: HEL cell growth inhibition by fresh or aged drug stocks (stability); format: cell-based, human; conditions: stocks stored two to three years at −20° Celsius; 2.5, 5, 10, 20 μM, 24 hours
Experimental: Fresh or aged stocks of compounds 1 and 2 were tested for the ability to inhibit HEL cell growth at 2.5, 5, 10, and 20 μM of each drug after 24 hours (FIG. 19A-FIG. 19B).
The CellTiter Glo® assay was performed using HEL cells seeded at 1000 cells/well of a 96-well plate. The “fresh” drug stocks were obtained frozen (stored at −20° Celsius) within days of executing the proliferation experiment for which results are shown. The “aged” drug stocks were obtained from freeze-thawed stocks serially diluted and stored at −20° Celsius in the laboratory. The “aged” stocks were stored between at least two years to three years at −20° Celsius with little to no freeze-thaw cycles prior to execution of the proliferation experiment for which results are shown. “Aged” stocks may be stored for several years (e.g., at least one year, at least two years, at least three years, at least four years or more) at −20° Celsius prior to use.

JAK2-V617F [7] = target: JAK2-V617F (Homo sapiens (Human), UniProt O60674, V617F); test: JAK2-V617F protein loss in human AML cell lines by western blotting; format: cell-based; conditions: HEL cells, co-treatment with cycloheximide
Experimental: as §2

normal bone marrow cells = test: Normal bone marrow colony assay; format: cell-based, human
Experimental: Normal human bone marrow was also analyzed in a colony assay: 24-well plates seeded with 200 cells/well in MethoCult™ H4434 Classic (methylcellulose-based medium with recombinant cytokines for human cells) ([…] Technologies™ INC., Vancouver, British Columbia, Canada). The plates contained targeted JOSD1 inhibitors at the indicated concentrations. Plates were incubated at 37° C. in 5% CO2 for >1 week, and then myeloid and erythroid colonies (early progenitors with erythroid and myeloid components: colony-forming unit for granulocytes and macrophages (CFU-GM), CFU-erythroid (E), BFU-E, and CFU-granulocyte, erythroid, macrophage, megakaryocyte (GEMM) were counted on an inverted microscope.

Sequence of UCHL1 (P09936 whole entry, species assumed): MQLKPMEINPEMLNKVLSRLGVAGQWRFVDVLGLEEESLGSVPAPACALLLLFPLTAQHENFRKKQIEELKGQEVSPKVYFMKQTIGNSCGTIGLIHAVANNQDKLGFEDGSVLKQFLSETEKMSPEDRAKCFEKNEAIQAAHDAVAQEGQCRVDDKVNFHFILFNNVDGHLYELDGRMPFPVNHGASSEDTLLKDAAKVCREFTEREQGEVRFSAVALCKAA
Sequence of USP30 (Q70CQ3 whole entry, species assumed): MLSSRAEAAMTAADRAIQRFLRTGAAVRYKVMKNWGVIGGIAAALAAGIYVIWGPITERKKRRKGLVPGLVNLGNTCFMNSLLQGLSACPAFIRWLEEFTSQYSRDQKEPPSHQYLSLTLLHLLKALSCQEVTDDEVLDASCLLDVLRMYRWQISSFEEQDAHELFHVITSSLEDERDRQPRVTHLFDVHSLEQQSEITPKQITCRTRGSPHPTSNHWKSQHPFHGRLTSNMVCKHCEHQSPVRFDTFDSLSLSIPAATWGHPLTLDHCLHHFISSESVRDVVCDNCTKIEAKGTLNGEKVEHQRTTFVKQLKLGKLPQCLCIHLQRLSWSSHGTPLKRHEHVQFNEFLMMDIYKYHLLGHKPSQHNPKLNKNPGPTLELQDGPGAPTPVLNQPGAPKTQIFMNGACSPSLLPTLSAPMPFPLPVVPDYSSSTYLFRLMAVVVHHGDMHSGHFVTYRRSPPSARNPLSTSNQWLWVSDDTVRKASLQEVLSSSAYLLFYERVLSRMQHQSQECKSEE

| Structure (SMILES) | IC50 (UCHL1) | IC50 (JOSD1 [1]) | other results |
| --- | --- | --- | --- |
| Cc1noc(C)c1-c1ccc2nc(NC(=O)C3CCN(C#N)CC3)sc2c1 [Compound 35, 1-Cyano-N-(6-(3,5-dimethylisoxazol-4-yl)benzo[d]thiazol-2-yl)piperidine-4-carboxamide] | 420 nM | 2770 nM | – |
| N#CN1CC[C@H](C(=O)Nc2nc3ccc(Br)nc3s2)C1 [Compound 15, (S)—N-(5-bromothiazolo[5,4-b]pyridin-2-yl)-1-cyanopyrrolidine-3-carboxamide] | 2000 nM | 288 nM | – |
| Cc1noc(C)c1-c1ccc2nc(NC(=O)[C@H]3CCN(C#N)C3)sc2n1 [Compound 19] | 90 nM | 420 nM | – |
| Cc1noc(C)c1-c1ccc2nc(NC(=O)[C@H]3CCN(CC#N)C3)sc2c1 [Compound 40, (S)-1-(cyanomethyl)-N-(6-(3,5-dimethylisoxazol-4-yl)benzo[d]thiazol-2-yl)pyrrolidine-3-carboxamide] | 100000 nM | 5680 nM | – |
| N#CN1CC[C@H](NC(=O)c2nc3ccccc3s2)C1 [Compound 20] | 2060 nM | 430 nM | – |
| N#CN1CC[C@H](C(=O)Nc2cn(-c3ccccc3)cn2)C1 [Compound 28] | 155 nM | 1220 nM | – |
| N#CN1CCC(C(=O)Nc2nc3c(s2)CN(C(=O)c2ccccc2)CC3)C1 (stereo not drawn) [Compound 26] | 100 nM | 1100 nM | – |
| N#CN1CC(CNC(=O)c2nc3ccccc3s2)C1 [Compound 46, N-((1-cyanoazetidin-3-yl)methyl)benzo[d]thiazole-2-carboxamide] | 100000 nM | 11300 nM | – |
| N#CC[C@H](C1CCCC1)n1cc(-c2ncnc3[nH]ccc23)cn1 [ruxolitinib, reference compound] | – | – | efficacy against primary AML cells [2]: at best modest efficacy |
| N#CN1CC[C@H](C(=O)Nc2cn(C3CCCN(C(=O)c4ccccc4)C3)cn2)C1 (stereo partly drawn) [Compound 38] | 89 nM | 4150 nM | – |
| CCS(=O)(=O)N1CCN(c2nc3cccc(-c4c(C)noc4C)c3s2)C(=O)C1 [Compound 66] | – | – | IC50 (JOSD1 [3]): > 100 nM |
| N#CN1CC[C@H](C(=O)Nc2ccn(Cc3ccccc3)c2)C1 [Compound 25] | 8900 nM | 931 nM | – |
| Cc1noc(C)c1-c1ccc2nc(NC(=O)[C@H]3CCN(C#N)C3)sc2c1 [Compound 12] | 100 nM | 244 nM | – |
| N#CN1CC[C@H](C(=O)Nc2nc3ccccc3[nH]2)C1 [Compound 30, (S)—N-(1H-benzo[d]imidazol-2-yl)-1-cyanopyrrolidine-3-carboxamide] | 3670 nM | 1370 nM | – |
| N#CN1CC(C(=O)Nc2nc3ccc(Br)cc3s2)C1 [Compound 33, N-(6-bromobenzo[d]thiazol-2-yl)-1-cyanoazetidine-3-carboxamide] | 1830 nM | 1950 nM | – |
| N#CN1CCC(C(=O)Nc2nc3ccc(C4CC4)cc3s2)C1 (stereo in doubt) [Compound 8, (R)-1-cyano-N-(6-cyclopropylbenzo[d]thiazol-2-yl)pyrrolidine-3-carboxamide] | 12 nM | 99 nM | – |
| N#CN1CC[C@H](C(=O)Nc2nc3n(n2)CCN(C(=O)c2ccccc2)C3)C1 [Compound 36] | 1340 nM | 3370 nM | – |
| N#CN1CCc2cc(NC(=O)c3nc4ccccc4s3)ccc21 [Compound 41] | 100000 nM | 6070 nM | – |
| Cc1noc(C)c1-c1ccc2nc(NC(=O)[C@H]3CCN(C#N)C3)sc2c1 [Compound 1, (S)-1-cyano-N-(6-(3,5-dimethylisoxazol-4-yl)benzo[d]thiazol-2-yl)pyrrolidine-3-carboxamide] | – | – | UCHL1 biochemical IC50 (range in words) (UCHL1): several hundred; USP30 biochemical IC50 (range in words) (USP30): several hundred; target engagement of UCHL1, USP30 and JOSD1 [4]: dose-dependent target engagement; killing of Ba/F3-EPOR-JAK2-V617F cells compared to wt JAK2-expressing parental Ba/F3 cells [5]: selective killing; sensitivity compared to Ba/F3 cells overexpressing other oncogenes [5]: among the highest sensitivity; cell growth inhibition ([5]; 1, 3 and 10 μM, 24 hours, independent experiments): inhibit growth; JAK2 degradation, independent western blotting (JAK2-V617F [6]; 18 hours, 10 μM compound 1 or 5 μM compound 2): degradation of JAK2; JAK2-V617F protein level (JAK2-V617F [6]; Ba/F3-EPOR-JAK2-V617F-expressing cells): decreases in JAK2-V617F protein; JAK2 levels in wt cells (wt JAK2): little to no impact on JAK2 levels; stability: growth inhibition by aged stocks versus fresh stocks (HEL cells): comparable cell growth inhibition; JAK2-V617F protein half-life (JAK2-V617F [7]): shorten JAK2-V617F protein half-life; normal bone marrow colony formation (normal bone marrow cells; 5 μM or higher): significantly impaired; normal bone marrow colony formation (normal bone marrow cells; concentrations up to 2.5 μM): colonies were able to form; JOSD1 IC50 (range in words) (JOSD1 [1]): several hundred |
